Legend:
[1] = molecular target: T1, FgPT1 (Fusarium globosum, UniProt A0A8H5XPW9); test: HPLC product formation, Michaelis-Menten fit; assay type: biochemical; conditions: 1 mM DMAPP, 1 mM BaCl2, 100 mM Tris-HCl pH 7.5, 37 °C, apparent
T1 construct: gene FGLOB1_12591; full length, 426 residues, N-terminal His6 tag (pET-28a, synthetic gene), E. coli BL21(DE3), Ni-NTA
Source text: HPLC product formation, Michaelis-Menten fit on FgPT1

[2] = molecular target: T1, FgPT1; test: HPLC / LC-MS product detection; assay type: biochemical; conditions: prenyl donor; with flavanone acceptor, metal ion (Ba2+ best), Tris-HCl pH 7.5, 37 °C

T1 sequence (A0A8H5XPW9 entry or part of it): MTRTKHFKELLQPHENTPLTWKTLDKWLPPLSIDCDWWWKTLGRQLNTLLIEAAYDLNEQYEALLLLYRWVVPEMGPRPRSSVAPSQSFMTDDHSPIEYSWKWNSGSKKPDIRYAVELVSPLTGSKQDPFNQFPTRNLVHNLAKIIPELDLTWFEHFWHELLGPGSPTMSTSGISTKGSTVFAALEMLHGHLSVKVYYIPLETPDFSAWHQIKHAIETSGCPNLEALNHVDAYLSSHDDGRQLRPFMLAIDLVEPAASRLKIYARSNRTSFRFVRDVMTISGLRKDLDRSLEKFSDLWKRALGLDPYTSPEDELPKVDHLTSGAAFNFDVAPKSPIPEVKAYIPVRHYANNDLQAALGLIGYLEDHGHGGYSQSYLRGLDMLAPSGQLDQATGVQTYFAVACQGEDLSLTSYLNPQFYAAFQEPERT

Structure (SMILES) | KM (mM) [1] | also measured
O=C1CC(c2ccccc2)Oc2cc(O)cc(O)c21 (racemic) [compound 5, Rac-pinocembrin] | – | KM (mM) ([1]; racemic substrate): 0.14 ± (0.037) mM
CC(C)=CCOP(=O)(O)OP(=O)(O)O [DMAPP] | – | HPLC / LC-MS product detection [2]: using DMAPP as the prenyl donor revealed catalytic activity exclusively toward six flavanones
O=C1C[C@@H](c2ccc(O)cc2)Oc2cc(O)cc(O)c21 [compound 1, Naringenin] | 0.26 ± (0.077) mM | –
COc1ccc([C@@H]2CC(=O)c3c(O)cc(O)cc3O2)cc1O [compound 2, Hesperetin] | 0.94 ± (0.075) mM | –
O=C1C[C@@H](c2ccc(O)c(O)c2)Oc2cc(O)cc(O)c21 [compound 3, Eriodictyol] | 0.23 ± (0.026) mM | –
O=C1C[C@@H](c2ccc(O)cc2)Oc2cc(O)ccc21 [compound 4, Liquiritigenin] | 0.93 ± (0.161) mM | –
O=C1c2c(O)cc(O)cc2OCC1c1ccc(O)cc1 (stereo not shown) [compound 6, Dihydrogenistein] | 0.14 ± (0.026) mM | –

From PMC11990136, “Prenylation of Flavanones by an Aromatic Prenyltransferase from Fusarium globosum” (Molecules, 2025)
